Experimental data taken from patent US8445719B2, “Method of stabilizing heme protein and storage solution therefor” (priority 2007, dated 2013).

Experiments:
[1] = molecular target: Hemoglobin + feces sample (Homo sapiens, UniProt P68871+P69905); test: Hemoglobin stabilization effect in storage solution, hemoglobin coexisting with feces sample (residual ratio by immunological measurement); details: for Residual ratio, Hemoglobin + feces sample: stored at 37° C. for 20 hours, pH 7.0 HEPES storage solution; for Stabilizing effect (in words): 0.001-0.050 mol/L
fecal human hemoglobin = fecal human hemoglobin (Homo sapiens, UniProt P68871+P69905); details: single use of EDTA
Hemoglobin = Hemoglobin (Homo sapiens, UniProt P68871+P69905); test: Hemoglobin stabilization effect in storage solution, hemoglobin only (residual ratio by immunological measurement); details: for Residual ratio, Hemoglobin: stored at 37° C. for 20 hours, pH 7.0 HEPES storage solution; for Stabilizing effect (in words): 0.001-0.050 mol/L
[2] = test solution in which hemoglobin and feces coexist, 37° C., 20 hours
[3] = test solution of hemoglobin only, 37° C., 20 hours

Chain of Hemoglobin (P69905 2-142 limits assumed): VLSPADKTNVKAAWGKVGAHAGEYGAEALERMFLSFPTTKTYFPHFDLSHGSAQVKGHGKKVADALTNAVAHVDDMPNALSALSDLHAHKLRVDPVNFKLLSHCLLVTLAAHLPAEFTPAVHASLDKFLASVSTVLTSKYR
Chain of Hemoglobin (P68871 2-147 limits assumed): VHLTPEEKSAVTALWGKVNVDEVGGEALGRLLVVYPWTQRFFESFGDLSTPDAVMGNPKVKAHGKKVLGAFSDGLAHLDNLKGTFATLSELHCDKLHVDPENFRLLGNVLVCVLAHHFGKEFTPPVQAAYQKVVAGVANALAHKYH
Chain of Hemoglobin + feces sample (P69905 2-142 limits assumed): as the sequence (P69905 2-142 limits assumed) above
Chain of Hemoglobin + feces sample (P68871 2-147 limits assumed): as the sequence (P68871 2-147 limits assumed) above
Chain of fecal human hemoglobin (P69905 2-142 limits assumed): as the sequence (P69905 2-142 limits assumed) above
Chain of fecal human hemoglobin (P68871 2-147 limits assumed): as the sequence (P68871 2-147 limits assumed) above

| SMILES | Residual ratio, Hemoglobin + feces sample ([1]; 0.001 mol/L agent added) | Residual ratio, Hemoglobin + feces sample ([1]; 0.010 mol/L agent added) | Residual ratio, Hemoglobin + feces sample ([1]; 0.050 mol/L agent added) | Stabilizing effect (in words) [1, 2] | Residual ratio, Hemoglobin (Hemoglobin; 0.001 mol/L agent added) | Residual ratio, Hemoglobin (Hemoglobin; 0.010 mol/L agent added) | Residual ratio, Hemoglobin (Hemoglobin; 0.050 mol/L agent added) | Stabilizing effect (in words) (Hemoglobin; [3]) | further results |
| --- | --- | --- | --- | --- | --- | --- | --- | --- | --- |
| O=C(O)CN(CCN(CC(=O)O)CC(=O)O)CC(=O)O [EDTA, ethylenediamine-N,N,N′,N′-4 acetic acid] | 34.3% | 35.8% | 37.1% | slightly higher effect to stabilize hemoglobin was observed | 79.5% | 79.8% | 82.4% | slight stabilizing effect was observed | Stabilizing action on fecal human hemoglobin (in words) (fecal human hemoglobin): sufficient stabilizing action on fecal human hemoglobin cannot be expected |
| O=C(O)CN(CCO)CC(=O)O [HIDA, N-(2-hydroxyethyl) iminodiacetic acid] | 26.1% | 26.4% | 27.3% | any certain stabilizing effect was not observed | 80.3% | 79.3% | 81.6% | slight stabilizing effect was observed |  |
| O=C([O-])CC(NC(C(=O)[O-])C(O)C(=O)[O-])C(=O)[O-].[Na+].[Na+].[Na+].[Na+] (centres unmarked) [HIDS, tetrasodium 3-hydroxy-2,2′-iminodisuccinate] | 28.8% | 39.2% | 50.8% |  | 82.8% | 84.2% | 84.1% |  | Residual ratio, Hemoglobin + feces sample ([1]; 0.005 mol/L agent added): 32.3%; Residual ratio, Hemoglobin + feces sample ([1]; 0.075 mol/L agent added): 53.9%; Residual ratio, Hemoglobin + feces sample ([1]; 0.100 mol/L agent added): 55.9%; Residual ratio, Hemoglobin + feces sample ([1]; 0.150 mol/L agent added): 57.8%; Residual ratio, Hemoglobin + feces sample ([1]; 0.200 mol/L agent added): 46.3%; Concentration at which the effect to stabilize hemoglobin was remarkable ([1]; 37° C., 20 hours): ≥ 0.050 mol/L; Concentration at which the stabilizing effect is observed [1, 2]: ≥ 0.005 mol/L; Residual ratio, Hemoglobin (Hemoglobin; 0.005 mol/L agent added): 83.9%; Residual ratio, Hemoglobin (Hemoglobin; 0.075 mol/L agent added): 85.2%; Residual ratio, Hemoglobin (Hemoglobin; 0.100 mol/L agent added): 87.8%; Residual ratio, Hemoglobin (Hemoglobin; 0.150 mol/L agent added): 88.2%; Residual ratio, Hemoglobin (Hemoglobin; 0.200 mol/L agent added): 86.2%; Concentration at which a stabilizing effect was observed (Hemoglobin; [3]): ≥ 0.001 mol/L |
| O=C(O)CNCC(=O)O [IDA, iminodiacetic acid] | 28.0% | 27.3% | 26.3% | any certain stabilizing effect was not observed | 82.1% | 80.9% | 81.0% | slight stabilizing effect was observed |  |
